Experimental data published in article PMC11992225, “Antibacterial compounds against non-growing and intracellular bacteria” (npj Antimicrobials and Resistance, 2025).

Experiments:
[1] = tested on: SOS response in UPEC CFT073; test: SOS response induction analysis, pAED2 cda' promoter mScarlet-I reporter; assay type: cell-based, Escherichia coli; settings: 20 μM
Protocol: Since we aimed to test SOS induction in non-growing cultures, it was essential to use a reporter with no leaky expression in the stationary phase. Therefore, we constructed the plasmid pAED2, based on the low copy-number plasmid pSC101, which contains the cda’ promoter in front of the mScarlet-I-encoding reporter gene.
Overnight cultures of CFT073 harboring a reporter plasmid were grown in 3 ml of LB supplemented with 100 µg/ml carbenicillin (Cb), then diluted 1:100 into the medium used for testing. For validation of the pANO1::cda’ reporter, an overnight culture was diluted into CA-MHB (supplemented with 40 mM HEPES, pH 7.4, and 100 µg/ml Cb) and grown to an OD600 ≈ 0.5 at 37 °C with shaking at 200 rpm in an Erlenmeyer flask. […] Empty wells were filled with water. […] The experiment was performed in triplicate.
For analysis of the SOS induction by anti-cancer compounds, the overnight cultures were diluted either into 1:4 diluted CA-MHB (40 mM HEPES, pH 7.4) or LPM (30 mM MES, pH 5.5) that were supplemented with 100 µg/ml Cb. For analysis of the effect on growing bacteria, the cultures were incubated at 37 °C with shaking at 200 rpm in Erlenmeyer flasks for 90 min, to an OD600 ≈ 0.5. Then, 180 μl aliquots were transferred to 96-well plates, and 20 μl of the 200 μM drug solution was added to achieve a final concentration of 20 μM. The plates were incubated in a microplate reader (BioTek Synergy H1) at 37 °C with continuous shaking for 6 h. OD600 and mScarlet fluorescence were recorded throughout the incubation.
For analysis of the effect of anti-cancer compounds on stationary phase- and regrowing bacteria, the cultures were incubated for 24 h at 37 °C with shaking at 200 rpm in Erlenmeyer flasks. […] The samples were incubated for 24 h at 37 °C in standing 1.5 ml tubes. Before and after the drug treatment, 25 μl aliquots were taken and diluted by mixing with 175 μl PBS. OD600 and mScarlet fluorescence were recorded using a microplate reader (BioTek Synergy H1).
After the treatment, stationary-phase bacteria were harvested by centrifugation at 5000 × g for 5 min at 20 °C, washed twice with PBS, and resuspended in 475 μl PBS.

[2] = tested on: non-growing S. aureus DSM2569; test: Dose-dependent killing analysis (CFU spot-plating) of stationary-phase S. aureus; assay type: cell-based, Staphylococcus aureus; settings: for Log10(CFU/ml), Replicate #1 / Log10(CFU/ml), Replicate #2 / Log10(CFU/ml), Replicate #3 / Δlog10(CFU/ml): S. aureus; for Δlog10(CFU/ml): average killing vs before treatment (9,097)
Summary of the method: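 Stationary-phase S. aureus DSM2569 was grown and treated for 24 h in 1:4 CA-MHB at pH 7.4. Treated samples were serially diluted 10-fold in PBS and spot-plated on LB agar, which was incubated overnight at 37 °C. Survivors were counted as CFU over three biological replicates.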

[3] = tested on: non-growing UPEC CFT073; test: Dose-dependent killing analysis (CFU spot-plating) of stationary-phase UPEC; assay type: cell-based, Escherichia coli
Summary of the method: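 Non-growing (stationary-phase) UPEC CFT073 treated with compounds in 96-well format at 200 μl, then 10-fold serially diluted in PBS and 10 μl spots plated on LB agar. Plates incubated overnight at 37 °C; colonies counted at lowest resolvable dilution to give CFU. Three biological replicates.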

[4] = E. coli in 1:4 CA-MHB (pH 7.4), 0.25 μM
[5] = E. coli in 1:4 CA-MHB (pH 7.4), 0.5 μM
[6] = E. coli in 1:4 CA-MHB (pH 7.4), 1 μM
[7] = E. coli in 1:4 CA-MHB (pH 7.4), 2.5 μM
[8] = E. coli in 1:4 CA-MHB (pH 7.4), 5 μM
[9] = E. coli in 1:4 CA-MHB (pH 7.4), 10 μM
[10] = E. coli in LPM (pH 5.5), 0.25 μM
[11] = E. coli in LPM (pH 5.5), 0.5 μM
[12] = E. coli in LPM (pH 5.5), 2.5 μM

## Cn1c(COP(=O)(NCCBr)NCCBr)cnc1[N+](=O)[O-] [Evofosfamide]
[1]; 6 h, MMC, BLE, ECH in 1:4 CA-MHB pH 7.4, PLI, SAT, EVO in LPM pH 5.5
  induction of the SOS response in growing UPEC cultures: induced the SOS response
[1]; LPM pH 5.5, Fig. S7C,D
  growth inhibition of growing UPEC: only a slight growth inhibition
[2]; 0.1 μM
  Log10(CFU/ml), Replicate #1: 9.580 Log10(CFU/ml)
  Log10(CFU/ml), Replicate #2: 8.996 Log10(CFU/ml)
  Log10(CFU/ml), Replicate #3: 9.049 Log10(CFU/ml)
  Δlog10(CFU/ml): -0.111 log10(CFU/ml)
[2]; 0.5 μM
  Log10(CFU/ml), Replicate #1: 9.362 Log10(CFU/ml)
  Log10(CFU/ml), Replicate #2: 9.017 Log10(CFU/ml)
  Log10(CFU/ml), Replicate #3: 8.881 Log10(CFU/ml)
  Δlog10(CFU/ml): 0.011 log10(CFU/ml)
[2]; 2.5 μM
  Log10(CFU/ml), Replicate #1: 8.863 Log10(CFU/ml)
  Log10(CFU/ml), Replicate #2: 8.724 Log10(CFU/ml)
  Log10(CFU/ml), Replicate #3: 8.663 Log10(CFU/ml)
  Δlog10(CFU/ml): 0.347 log10(CFU/ml)
[2]; 10 μM
  Log10(CFU/ml), Replicate #1: 5.954 Log10(CFU/ml)
  Log10(CFU/ml), Replicate #2: 5.845 Log10(CFU/ml)
  Log10(CFU/ml), Replicate #3: 5.748 Log10(CFU/ml)
  Δlog10(CFU/ml): 3.248 log10(CFU/ml)
[2]; at 10 µM, 24 h treatment
  reduction of non-growing S. aureus: below the limit of detection
[3]; [4]
  Log10(CFU/ml), Replicate #1: 9.398 Log10(CFU/ml)
  Log10(CFU/ml), Replicate #2: 8.477 Log10(CFU/ml)
  Log10(CFU/ml), Replicate #3: 8.954 Log10(CFU/ml)
[3]; E. coli in 1:4 CA-MHB (pH 7.4), 0.25 μM, average killing vs before treatment (8.977)
  Δlog10(CFU/ml): 0.034 log10(CFU/ml)
[3]; [5]
  Log10(CFU/ml), Replicate #1: 9.279 Log10(CFU/ml)
  Log10(CFU/ml), Replicate #2: 9.114 Log10(CFU/ml)
  Log10(CFU/ml), Replicate #3: 8.301 Log10(CFU/ml)
[3]; E. coli in 1:4 CA-MHB (pH 7.4), 0.5 μM, average killing vs before treatment (8.977)
  Δlog10(CFU/ml): 0.079 log10(CFU/ml)
[3]; [6]
  Log10(CFU/ml), Replicate #1: 9.477 Log10(CFU/ml)
  Log10(CFU/ml), Replicate #2: 8.845 Log10(CFU/ml)
  Log10(CFU/ml), Replicate #3: 8.491 Log10(CFU/ml)
[3]; E. coli in 1:4 CA-MHB (pH 7.4), 1 μM, average killing vs before treatment (8.977)
  Δlog10(CFU/ml): 0.039 log10(CFU/ml)
[3]; [7]
  Log10(CFU/ml), Replicate #1: 9.415 Log10(CFU/ml)
  Log10(CFU/ml), Replicate #2: 8.954 Log10(CFU/ml)
  Log10(CFU/ml), Replicate #3: 8.491 Log10(CFU/ml)
[3]; E. coli in 1:4 CA-MHB (pH 7.4), 2.5 μM, average killing vs before treatment (8.977)
  Δlog10(CFU/ml): 0.024 log10(CFU/ml)
[3]; [8]
  Log10(CFU/ml), Replicate #1: 8.778 Log10(CFU/ml)
  Log10(CFU/ml), Replicate #2: 7.845 Log10(CFU/ml)
  Log10(CFU/ml), Replicate #3: 8.301 Log10(CFU/ml)
[3]; E. coli in 1:4 CA-MHB (pH 7.4), 5 μM, average killing vs before treatment (8.977)
  Δlog10(CFU/ml): 0.669 log10(CFU/ml)
[3]; [9]
  Log10(CFU/ml), Replicate #1: 9.000 Log10(CFU/ml)
  Log10(CFU/ml), Replicate #2: 8.000 Log10(CFU/ml)
  Log10(CFU/ml), Replicate #3: 7.778 Log10(CFU/ml)
[3]; E. coli in 1:4 CA-MHB (pH 7.4), 10 μM, average killing vs before treatment (8.977)
  Δlog10(CFU/ml): 0.718 log10(CFU/ml)
[3]; [10]
  Log10(CFU/ml), Replicate #1: 6.477 Log10(CFU/ml)
  Log10(CFU/ml), Replicate #2: 6.568 Log10(CFU/ml)
  Log10(CFU/ml), Replicate #3: 8.176 Log10(CFU/ml)
[3]; E. coli in LPM (pH 5.5), 0.25 μM, average killing vs before treatment (7.350)
  Δlog10(CFU/ml): 0.277 log10(CFU/ml)
[3]; [11]
  Log10(CFU/ml), Replicate #1: 6.602 Log10(CFU/ml)
  Log10(CFU/ml), Replicate #2: 6.903 Log10(CFU/ml)
  Log10(CFU/ml), Replicate #3: 8.230 Log10(CFU/ml)
[3]; E. coli in LPM (pH 5.5), 0.5 μM, average killing vs before treatment (7.350)
  Δlog10(CFU/ml): 0.105 log10(CFU/ml)
[3]; E. coli in LPM (pH 5.5), 1 μM
  Log10(CFU/ml), Replicate #1: 6.279 Log10(CFU/ml)
  Log10(CFU/ml), Replicate #2: 6.845 Log10(CFU/ml)
  Log10(CFU/ml), Replicate #3: 8.000 Log10(CFU/ml)
[3]; E. coli in LPM (pH 5.5), 1 μM, average killing vs before treatment (7.350)
  Δlog10(CFU/ml): 0.309 log10(CFU/ml)
[3]; [12]
  Log10(CFU/ml), Replicate #1: 6.301 Log10(CFU/ml)
  Log10(CFU/ml), Replicate #2: 6.079 Log10(CFU/ml)
  Log10(CFU/ml), Replicate #3: 7.954 Log10(CFU/ml)
[3]; E. coli in LPM (pH 5.5), 2.5 μM, average killing vs before treatment (7.350)
  Δlog10(CFU/ml): 0.572 log10(CFU/ml)
[3]; E. coli in LPM (pH 5.5), 5 μM
  Log10(CFU/ml), Replicate #1: 5.699 Log10(CFU/ml)
  Log10(CFU/ml), Replicate #2: 5.447 Log10(CFU/ml)
  Log10(CFU/ml), Replicate #3: 7.602 Log10(CFU/ml)
[3]; E. coli in LPM (pH 5.5), 5 μM, average killing vs before treatment (7.350)
  Δlog10(CFU/ml): 1.101 log10(CFU/ml)
[3]; E. coli in LPM (pH 5.5), 10 μM
  Log10(CFU/ml), Replicate #1: 5.176 Log10(CFU/ml)
  Log10(CFU/ml), Replicate #2: 4.954 Log10(CFU/ml)
  Log10(CFU/ml), Replicate #3: 7.146 Log10(CFU/ml)
[3]; E. coli in LPM (pH 5.5), 10 μM, average killing vs before treatment (7.350)
  Δlog10(CFU/ml): 1.592 log10(CFU/ml)
